Results: US9771334B2, “Triketone compound and preparation method and use thereof” (SHANDONG CYNDA CHEMICAL CO., LTD., priority 2013, dated 2017)

Key:
Type in all cases: in vivo
wheat = experiment: Crop safety test (pot culture method); conditions: plants with about 4-5 leaves, investigated 15 days later
Excerpt: (§1) This test example is for describing crop safety of the compound with a structure shown in Formula (1). Crop safety test method (pot culture method): The test targets are wheat and maize. Take flowerpots with an inner diameter of 12 cm, put composite soil (vegetable garden soil:seedling matrix=1:2, v/v) into them till ¾ of flowerpot height, directly sow the crop seeds (budding rate>85%), cover them with 0.2 cm thick soil, and keep the plants for future use when they grow to have about 4-5 leaves. Each compound is dissolved in N,N-dimethylformamide at doses of 75 g/ha or 150 g/ha and diluted with distilled water containing 0.1% tween-80 emulsifier to form 0.1 g/L (75 g/ha) solution and 0.2 g/L (150 g/ha) solution respectively. The solutions are sprayed through an automatic spray tower. After the solutions on weed leaves are dried in the air, the flowerpots are moved into a greenhouse for cultivation. The result is investigated 15 days later.

maize = experiment: Crop safety test (pot culture method); conditions: plants with about 4-5 leaves, investigated 15 days later
Excerpt: as §1

digitaria sanguinalis = experiment: Herbicidal activity, pot culture method (primary and secondary screening test); conditions: sprayed at 3-leaf stage; for inhibition ratio, Digitaria sanguinalis: investigated 15 days later; for herbicidal activity inhibition ratio (%), Digitaria sanguinalis: primary screening, pot culture, 150 g/ha, result 15 days later
In short: (§2)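 Post-emergence pot test: 3-leaf-stage weeds, tower spray of 0.2 g/L solution (DMF stock, water dilution) at 150 g/ha, greenhouse, inhibition (%) scored at 15 days. Secondary screen at a reduced dose.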

echinochloa crusgalli = experiment: as above; conditions: sprayed at 3-leaf stage; for inhibition ratio, Echinochloa crusgalli: investigated 15 days later; for herbicidal activity inhibition ratio (%), Echinochloa crusgalli: primary screening, pot culture, 150 g/ha, result 15 days later
In short: as §2

abutilon theophrasti = experiment: as above; conditions: sprayed at 3-leaf stage; for inhibition ratio, Abutilon theophrasti: investigated 15 days later; for herbicidal activity inhibition ratio (%), Abutilon theophrasti: primary screening, pot culture, 150 g/ha, result 15 days later
In short: as §2

amaranthus retroflexus = experiment: as above; conditions: sprayed at 3-leaf stage; for inhibition ratio, Amaranthus retroflexus: investigated 15 days later; for herbicidal activity inhibition ratio (%), Amaranthus retroflexus: primary screening, pot culture, 150 g/ha, result 15 days later
In short: as §2

eclipta prostrata = experiment: as above; conditions: sprayed at 3-leaf stage; for inhibition ratio, Eclipta prostrata: investigated 15 days later; for herbicidal activity inhibition ratio (%), Eclipta prostrata: primary screening, pot culture, 150 g/ha, result 15 days later
In short: as §2

setaria viridis = experiment: as above; conditions: sprayed at 3-leaf stage; for inhibition ratio, Setaria viridis: investigated 15 days later; for herbicidal activity inhibition ratio (%), Setaria viridis: primary screening, pot culture, 150 g/ha, result 15 days later
In short: as §2

In the case of `Cn1c(=O)n(-c2ccccc2Cl)c(=O)c2cc(C(=O)C3=C(O)CCCC3=O)ccc21` [Compound 5], the “inhibition ratio, Wheat (crop safety)” value (wheat; dose 75 g/ha) is reported as 0%, the “inhibition ratio, Wheat (crop safety)” value (wheat; dose 150 g/ha) is reported as 0% and the “inhibition ratio, Maize (crop safety)” value (maize; dose 75 g/ha) is reported as 0%. The “inhibition ratio, Maize (crop safety)” value (maize; dose 150 g/ha) was 15%, the “inhibition ratio, Digitaria sanguinalis” value (digitaria sanguinalis; dose 37.5 g/ha) was 40% and the “inhibition ratio, Digitaria sanguinalis” value (digitaria sanguinalis; dose 75 g/ha) was 90%. For the same compound, the “herbicidal activity inhibition ratio (%), Digitaria sanguinalis” value (digitaria sanguinalis) was 100%, the “inhibition ratio, Echinochloa crusgalli” value (echinochloa crusgalli; dose 37.5 g/ha) was 60% and the “inhibition ratio, Echinochloa crusgalli” value (echinochloa crusgalli; dose 75 g/ha) was 90%. The “herbicidal activity inhibition ratio (%), Echinochloa crusgalli” value (echinochloa crusgalli) was 80%, the “inhibition ratio, Abutilon theophrasti” value (abutilon theophrasti; dose 37.5 g/ha) was 60% and the “inhibition ratio, Abutilon theophrasti” value (abutilon theophrasti; dose 75 g/ha) was 70%. For the same compound, the “herbicidal activity inhibition ratio (%), Abutilon theophrasti” value (abutilon theophrasti) was 85%, the “inhibition ratio, Amaranthus retroflexus” value (amaranthus retroflexus; dose 37.5 g/ha) was 60% and the “inhibition ratio, Amaranthus retroflexus” value (amaranthus retroflexus; dose 75 g/ha) was 75%. For the same compound, the “herbicidal activity inhibition ratio (%), Amaranthus retroflexus” value (amaranthus retroflexus) was 80%, the “inhibition ratio, Eclipta prostrata” value (eclipta prostrata; dose 37.5 g/ha) was 30% and the “inhibition ratio, Eclipta prostrata” value (eclipta prostrata; dose 75 g/ha) was 40%. For the same compound, the “herbicidal activity inhibition ratio (%), Eclipta prostrata” value (eclipta prostrata) was 80%, the “inhibition ratio, Setaria viridis” value (setaria viridis; dose 37.5 g/ha) was 60% and the “inhibition ratio, Setaria viridis” value (setaria viridis; dose 75 g/ha) was 90%. For the same compound, the “herbicidal activity inhibition ratio (%), Setaria viridis” value (setaria viridis) was 100%.
For `Cn1c(=O)n(-c2ccccc2Cl)c(=O)c2cc(C(=O)C3=C(O)CC(C)(C)CC3=O)ccc21` [Compound 6], the “inhibition ratio, Wheat (crop safety)” value (wheat; dose 75 g/ha) was 0%, the “inhibition ratio, Wheat (crop safety)” value (wheat; dose 150 g/ha) was 0% and the “inhibition ratio, Maize (crop safety)” value (maize; dose 75 g/ha) was 0%. For the same compound, the “inhibition ratio, Maize (crop safety)” value (maize; dose 150 g/ha) was 15%, the “inhibition ratio, Digitaria sanguinalis” value (digitaria sanguinalis; dose 37.5 g/ha) was 60% and the “inhibition ratio, Digitaria sanguinalis” value (digitaria sanguinalis; dose 75 g/ha) was 70%. The “herbicidal activity inhibition ratio (%), Digitaria sanguinalis” value (digitaria sanguinalis) was 75%, the “inhibition ratio, Echinochloa crusgalli” value (echinochloa crusgalli; dose 37.5 g/ha) was 70% and the “inhibition ratio, Echinochloa crusgalli” value (echinochloa crusgalli; dose 75 g/ha) was 75%. The “herbicidal activity inhibition ratio (%), Echinochloa crusgalli” value (echinochloa crusgalli) was 80%, the “inhibition ratio, Abutilon theophrasti” value (abutilon theophrasti; dose 37.5 g/ha) was 70% and the “inhibition ratio, Abutilon theophrasti” value (abutilon theophrasti; dose 75 g/ha) was 70%. The “herbicidal activity inhibition ratio (%), Abutilon theophrasti” value (abutilon theophrasti) was 100%, the “inhibition ratio, Amaranthus retroflexus” value (amaranthus retroflexus; dose 37.5 g/ha) was 70% and the “inhibition ratio, Amaranthus retroflexus” value (amaranthus retroflexus; dose 75 g/ha) was 75%. The “herbicidal activity inhibition ratio (%), Amaranthus retroflexus” value (amaranthus retroflexus) was 80%, the “inhibition ratio, Eclipta prostrata” value (eclipta prostrata; dose 37.5 g/ha) was 70% and the “inhibition ratio, Eclipta prostrata” value (eclipta prostrata; dose 75 g/ha) was 70%. For the same compound, the “herbicidal activity inhibition ratio (%), Eclipta prostrata” value (eclipta prostrata) was 85%, the “inhibition ratio, Setaria viridis” value (setaria viridis; dose 37.5 g/ha) was 60% and the “inhibition ratio, Setaria viridis” value (setaria viridis; dose 75 g/ha) was 60%. For the same compound, the “herbicidal activity inhibition ratio (%), Setaria viridis” value (setaria viridis) was 90%.
In the case of `Cc1ccccc1-n1c(=O)c2cc(C(=O)C3=C(O)CCCC3=O)ccc2n(C)c1=O` [Compound 20], the “inhibition ratio, Wheat (crop safety)” value (wheat; dose 75 g/ha) is reported as 0%, the “inhibition ratio, Wheat (crop safety)” value (wheat; dose 150 g/ha) is reported as 0% and the “inhibition ratio, Maize (crop safety)” value (maize; dose 75 g/ha) is reported as 0%. For the same compound, the “inhibition ratio, Maize (crop safety)” value (maize; dose 150 g/ha) was 15%, the “inhibition ratio, Digitaria sanguinalis” value (digitaria sanguinalis; dose 37.5 g/ha) was 40% and the “inhibition ratio, Digitaria sanguinalis” value (digitaria sanguinalis; dose 75 g/ha) was 70%. For the same compound, the “herbicidal activity inhibition ratio (%), Digitaria sanguinalis” value (digitaria sanguinalis) was 100%, the “inhibition ratio, Echinochloa crusgalli” value (echinochloa crusgalli; dose 37.5 g/ha) was 50% and the “inhibition ratio, Echinochloa crusgalli” value (echinochloa crusgalli; dose 75 g/ha) was 60%. The “herbicidal activity inhibition ratio (%), Echinochloa crusgalli” value (echinochloa crusgalli) was 100%, the “inhibition ratio, Abutilon theophrasti” value (abutilon theophrasti; dose 37.5 g/ha) was 30% and the “inhibition ratio, Abutilon theophrasti” value (abutilon theophrasti; dose 75 g/ha) was 85%. The “herbicidal activity inhibition ratio (%), Abutilon theophrasti” value (abutilon theophrasti) was 100%, the “inhibition ratio, Amaranthus retroflexus” value (amaranthus retroflexus; dose 37.5 g/ha) was 50% and the “inhibition ratio, Amaranthus retroflexus” value (amaranthus retroflexus; dose 75 g/ha) was 60%. The “herbicidal activity inhibition ratio (%), Amaranthus retroflexus” value (amaranthus retroflexus) was 100%, the “inhibition ratio, Eclipta prostrata” value (eclipta prostrata; dose 37.5 g/ha) was 50% and the “inhibition ratio, Eclipta prostrata” value (eclipta prostrata; dose 75 g/ha) was 50%. The “herbicidal activity inhibition ratio (%), Eclipta prostrata” value (eclipta prostrata) was 95%, the “inhibition ratio, Setaria viridis” value (setaria viridis; dose 37.5 g/ha) was 50% and the “inhibition ratio, Setaria viridis” value (setaria viridis; dose 75 g/ha) was 70%. For the same compound, the “herbicidal activity inhibition ratio (%), Setaria viridis” value (setaria viridis) was 100%.
`CC(C)c1ccccc1-n1c(=O)c2cc(C(=O)C3=C(O)CCCC3=O)ccc2n(C)c1=O` [Compound 97] was tested, and the “herbicidal activity inhibition ratio (%), Digitaria sanguinalis” value (digitaria sanguinalis) was 50%, the “herbicidal activity inhibition ratio (%), Echinochloa crusgalli” value (echinochloa crusgalli) was 55% and the “herbicidal activity inhibition ratio (%), Abutilon theophrasti” value (abutilon theophrasti) was 98%. The “herbicidal activity inhibition ratio (%), Amaranthus retroflexus” value (amaranthus retroflexus) was 100%, the “herbicidal activity inhibition ratio (%), Eclipta prostrata” value (eclipta prostrata) was 90% and the “herbicidal activity inhibition ratio (%), Setaria viridis” value (setaria viridis) was 50%.
For `Cc1cccc(C)c1-n1c(=O)c2cc(C(=O)C3=C(O)CC(C)(C)CC3=O)ccc2n(C)c1=O` [Compound 98], the “herbicidal activity inhibition ratio (%), Digitaria sanguinalis” value (digitaria sanguinalis) was 50%, the “herbicidal activity inhibition ratio (%), Echinochloa crusgalli” value (echinochloa crusgalli) was 85% and the “herbicidal activity inhibition ratio (%), Abutilon theophrasti” value (abutilon theophrasti) was 100%. For the same compound, the “herbicidal activity inhibition ratio (%), Amaranthus retroflexus” value (amaranthus retroflexus) was 100%, the “herbicidal activity inhibition ratio (%), Eclipta prostrata” value (eclipta prostrata) was 88% and the “herbicidal activity inhibition ratio (%), Setaria viridis” value (setaria viridis) was 80%.
